Each structure is given as a SMILES string.

This experiment addresses Adenosine receptor A1 (Mesocricetus auratus). The experiment is described as follows: Inhibition of specific binding of [3H]CPX to the A1 adenosine receptor in DDT1 MF-2 (DDT) cells.
By IC50 is commonly meant the point on the concentration scale where inhibition reaches its midpoint. Lower therefore signals greater potency in that assay. Compound `CCCn1c(=O)c2[nH]c(CNC(=O)CBr)nc2n(CCC)c1=O` [2-Bromo-N-(2,6-dioxo-1,3-dipropyl-2,3,6,7-tetrahydro-1H-purin-8-ylmethyl)-acetamide] came in with an IC50 of 11 µM.
On to `CCCn1c(=O)c2[nH]c(CCNC(=O)CBr)nc2n(CCC)c1=O` [2-Bromo-N-[2-(2,6-dioxo-1,3-dipropyl-2,3,6,7-tetrahydro-1H-purin-8-yl)-ethyl]-acetamide], for which the IC50 was 4 µM. This IC50 is about 2.8-fold lower than that of the compound before.
On to `CCCn1c(=O)c2[nH]c(CCCCCNC(=O)CBr)nc2n(CCC)c1=O` [2-Bromo-N-[5-(2,6-dioxo-1,3-dipropyl-2,3,6,7-tetrahydro-1H-purin-8-yl)-pentyl]-acetamide], for which the 50% inhibitory concentration (IC50) is 1.2 µM. Against the preceding compound, the IC50 is about 3.3-fold lower.
`CCCn1c(=O)c2[nH]c(NC(=O)c3cccc(S(=O)(=O)F)c3)nc2n(CCC)c1=O` [3-(2,6-Dioxo-1,3-dipropyl-2,3,6,7-tetrahydro-1H-purin-8-ylcarbamoyl)-benzenesulfonyl fluoride] gave an IC50 of 3.5 µM.
In turn, `CCCn1c(=O)c2[nH]c(C3CCCC3)nc2n(CCCOC(=O)c2cccc(S(=O)(=O)F)c2)c1=O` [3-Fluorosulfonyl-benzoic acid 3-(8-cyclopentyl-2,6-dioxo-1-propyl-1,2,6,7-tetrahydro-purin-3-yl)-propyl ester] registered an IC50 of 0.02 µM.
`CCCn1c(=O)c2[nH]c(CCCNC(=O)c3cccc(S(=O)(=O)F)c3)nc2n(CCC)c1=O` [3-[3-(2,6-Dioxo-1,3-dipropyl-2,3,6,7-tetrahydro-1H-purin-8-yl)-propylcarbamoyl]-benzenesulfonyl fluoride] returned an IC50 of 2.6 µM.
As for `CCCn1c(=O)c2[nH]c(NC(=O)c3ccc(S(=O)(=O)F)cc3)nc2n(CCC)c1=O` [4-(2,6-Dioxo-1,3-dipropyl-2,3,6,7-tetrahydro-1H-purin-8-ylcarbamoyl)-benzenesulfonyl fluoride], the 50% inhibitory concentration (IC50) is 4.2 µM.
For `CCCn1c(=O)c2[nH]c(C3CCC(OC(=O)c4ccc(S(=O)(=O)F)cc4)C3)nc2n(CCC)c1=O` (centres undefined) [4-Fluorosulfonyl-benzoic acid 3-(2,6-dioxo-1,3-dipropyl-2,3,6,7-tetrahydro-1H-purin-8-yl)-cyclopentyl ester], the IC50 stood at 0.06 µM. This IC50 is about 70-fold lower than that of the compound before.
As for `CCCn1c(=O)c2[nH]c(CCNC(=O)c3ccc(S(=O)(=O)F)cc3)nc2n(CCC)c1=O` [4-[2-(2,6-Dioxo-1,3-dipropyl-2,3,6,7-tetrahydro-1H-purin-8-yl)-ethylcarbamoyl]-benzenesulfonyl fluoride], the IC50 amounted to 0.7 µM.
Compound `CCCn1c(=O)c2[nH]c(CNC(=O)c3ccc(S(=O)(=O)F)cc3)nc2n(CCC)c1=O` [4-[(2,6-Dioxo-1,3-dipropyl-2,3,6,7-tetrahydro-1H-purin-8-ylmethyl)-carbamoyl]-benzenesulfonyl fluoride] returned an IC50 of 2 µM.
`CCCn1c(=O)c2[nH]c(-c3ccc(Cl)c([N+](=O)[O-])c3)nc2n(CCC)c1=O` [8-(4-Chloro-3-nitro-phenyl)-1,3-dipropyl-3,7-dihydro-purine-2,6-dione] displayed a half-maximal inhibitory concentration (IC50) of 7 µM.
With `CCCn1c(=O)c2[nH]c(CCCCCN3C(=O)C=CC3=O)nc2n(CCC)c1=O` [8-[5-(2,5-Dioxo-2,5-dihydro-pyrrol-1-yl)-pentyl]-1,3-dipropyl-3,7-dihydro-purine-2,6-dione], the IC50 is 2.2 µM.
Compound `O=C(OCCCn1c(=O)c2[nH]c(C3CCCC3)nc2n(CCCOC(=O)c2ccc(S(=O)(=O)F)cc2)c1=O)c1ccc(S(=O)(=O)F)cc1` [8-cyclopentyl-1,3-di[3-(4-fluorosulfonylphenylcarbonyloxy)propyl]-2,6-dioxo-2,3,6,7-tetrahydro-1H-purine] showed an IC50 of 3.5 µM.
Regarding `CCCn1c(=O)c2[nH]c(CNC(=O)c3ccccc3)nc2n(CCC)c1=O` [N-(2,6-Dioxo-1,3-dipropyl-2,3,6,7-tetrahydro-1H-purin-8-ylmethyl)-benzamide], the IC50 turned out to be 6.3 µM.
